Assay results reported in ChEMBL document CHEMBL5247634, “Design, synthesis and anticancer evaluation of selective 2,4-disubstituted pyrimidine CDK9 inhibitors” (Eur J Med Chem, 2022).
The source made the active and inactive calls. No cut-off for these calls is given here.

Key:
A-431 = experiment: Antiproliferative activity against human A-431 cells assessed as cell growth inhibition measured after 72 hrs by MTT assay; type: functional, cell-based; settings: A-431, 72 h
PANC-1 [1] = experiment: Antiproliferative activity against human PANC-1 cells assessed as cell growth inhibition measured after 72 hrs by MTT assay; type: functional, cell-based; settings: PANC-1, 72 h
NCI-H1975 = experiment: Antiproliferative activity against human NCI-H1975 cells assessed as cell growth inhibition measured after 72 hrs by MTT assay; type: functional, cell-based; settings: NCI-H1975, 72 h
L02 = experiment: Antiproliferative activity against human L02 cells assessed as cell growth inhibition measured after 72 hrs by MTT assay; type: functional, cell-based; settings: L02, 72 h
HCT-116 = experiment: Antiproliferative activity against human HCT-116 cells assessed as cell growth inhibition measured after 72 hrs by MTT assay; type: functional, cell-based; settings: HCT-116, 72 h
A549 = experiment: Antiproliferative activity against human A549 cells assessed as cell growth inhibition measured after 72 hrs by MTT assay; type: functional, cell-based; settings: A549, 72 h
[2] = target: Cyclin-dependent kinase 2/cyclin A (Homo sapiens, UniProt P24941); experiment: Inhibition of CDK2/cyclin A (unknown origin) incubated for 1 hr in presence of ATP by ADP-glo luminescent assay; type: protein-complex assay
Homo sapiens = species on record: Homo sapiens; experiment: Selectivity index, ratio of IC50 for CDK2/cyclin A (unknown origin) to IC50 for CDK9/cyclin T1 (unknown origin)
CDK9/cyclin T1 = CDK9/cyclin T1 (Homo sapiens, UniProt P50750); experiment: Inhibition of CDK9/cyclin T1 (unknown origin) using as PDKtide substrate incubated for 1 hr in presence of ATP by ADP-glo luminescent assay; type: protein-complex assay
[3] = target: Cyclin-dependent kinase 2 (Homo sapiens, UniProt P24941)
Description: Inhibition of CDK2 (unknown origin)

PANC-1 [4] = experiment: Induction of apoptosis in human PANC-1 cells assessed as viable cells at 2.5 uM incubated for 48 hrs by Annexin-V-FITC/PI staining based flow cytometric analysis (reference value: 97.0%); type: functional; settings: read-out: Activity
[5] = Toxicity in BALB/c nude mouse xenografted with human PANC-1 cells assessed as mortality at 5 to 20 mg/kg, ip administered for every other day for 4 weeks; type: organism-based; settings: in vivo, 672 h, dose 5-20 mg/kg
PANC-1 [6] = experiment: Induction of cell cycle arrest in human PANC-1 cells assessed as accumulation at S phase at 0.1 uM incubated for 24 hrs by propidium iodide staining based flow cytometric analysis (reference value: 17.48%); type: functional
PANC-1 [7] = experiment: Induction of apoptosis in human PANC-1 cells assessed as late apoptotic cells at 0.1 uM incubated for 48 hrs by Annexin-V-FITC/PI staining based flow cytometric analysis (reference value: 0.22%); type: functional
PANC-1 [8] = experiment: Induction of cell cycle arrest in human PANC-1 cells assessed as accumulation at S phase at 2.5 uM incubated for 24 hrs by propidium iodide staining based flow cytometric analysis (reference value: 17.48%); type: functional
PANC-1 [9] = experiment: Induction of apoptosis in human PANC-1 cells assessed as viable cells at 0.1 uM incubated for 48 hrs by Annexin-V-FITC/PI staining based flow cytometric analysis (reference value: 97.0%); type: functional; settings: read-out: Activity
PANC-1 [10] = experiment: Induction of apoptosis in human PANC-1 cells assessed as necrotic cells at 0.1 uM incubated for 48 hrs by Annexin-V-FITC/PI staining based flow cytometric analysis (reference value: 0.59%); type: functional
[11] = Downregulation of RNAPII phosphorylation level in human PANC-1 cells at 2.5 uM incubated for 24 hrs by Western blot analysis; type: functional
PANC-1 [12] = experiment: Induction of apoptosis in human PANC-1 cells assessed as early apoptotic cells at 0.1 uM incubated for 48 hrs by Annexin-V-FITC/PI staining based flow cytometric analysis (reference value: 2.21%); type: functional
PANC-1 [13] = experiment: Induction of apoptosis in human PANC-1 cells assessed as necrotic cells at 0.5 uM incubated for 48 hrs by Annexin-V-FITC/PI staining based flow cytometric analysis (reference value: 0.59%); type: functional
PANC-1 [14] = experiment: Induction of apoptosis in human PANC-1 cells assessed as necrotic cells at 2.5 uM incubated for 48 hrs by Annexin-V-FITC/PI staining based flow cytometric analysis (reference value: 0.59%); type: functional
PANC-1 [15] = experiment: Induction of cell cycle arrest in human PANC-1 cells assessed as accumulation at G1 phase at 0.5 uM incubated for 24 hrs by propidium iodide staining based flow cytometric analysis (reference value: 80.36%); type: functional
PANC-1 [16] = experiment: Induction of cell cycle arrest in human PANC-1 cells assessed as accumulation at S phase at 0.5 uM incubated for 24 hrs by propidium iodide staining based flow cytometric analysis (reference value: 17.48%); type: functional
[17] = Toxicity in BALB/c nude mouse assessed as no obvious change in body weight at 5 to 20 mg/kg, ip administered for every other day for 4 weeks; type: organism-based; settings: in vivo, 672 h, dose 5-20 mg/kg
PANC-1 [18] = experiment: Induction of cell cycle arrest in human PANC-1 cells assessed as accumulation at G2M phase at 0.1 uM incubated for 24 hrs by propidium iodide staining based flow cytometric analysis (reference value: 2.16%); type: functional
PANC-1 [19] = experiment: Induction of apoptosis in human PANC-1 cells assessed as early apoptotic cells at 0.5 uM incubated for 48 hrs by Annexin-V-FITC/PI staining based flow cytometric analysis (reference value: 2.21%); type: functional
PANC-1 [20] = experiment: Induction of cell cycle arrest in human PANC-1 cells assessed as accumulation at G2M phase at 0.5 uM incubated for 24 hrs by propidium iodide staining based flow cytometric analysis (reference value: 2.16%); type: functional
PANC-1 [21] = experiment: Induction of cell cycle arrest in human PANC-1 cells assessed as accumulation at G1 phase at 2.5 uM incubated for 24 hrs by propidium iodide staining based flow cytometric analysis (reference value: 80.36%); type: functional
PANC-1 [22] = experiment: Induction of apoptosis in human PANC-1 cells assessed as viable cells at 0.5 uM incubated for 48 hrs by Annexin-V-FITC/PI staining based flow cytometric analysis (reference value: 97.0%); type: functional; settings: read-out: Activity
PANC-1 [23] = experiment: Induction of apoptosis in human PANC-1 cells assessed as late apoptotic cells at 2.5 uM incubated for 48 hrs by Annexin-V-FITC/PI staining based flow cytometric analysis (reference value: 0.22%); type: functional
[24] = Toxicity in BALB/c nude mouse xenografted with human PANC-1 cells assessed as no tissue lesions and necrosis at 5 to 20 mg/kg, ip administered for every other day for 4 weeks; type: organism-based; settings: in vivo, 672 h, dose 5-20 mg/kg
PANC-1 [25] = experiment: Antitumor activity against human PANC-1 cells xenografted in BALB/c nude mouse assessed as reduction in tumor growth rate at […], ip administered for every other day for 4 weeks relative to control; type: functional; set-up: scale not given: the % may be the effect or the level left
PANC-1 [26] = experiment: Antitumor activity against human PANC-1 cells xenografted in BALB/c nude mouse assessed as reduction in tumor growth rate at 10 mg/kg, ip administered for every other day for 4 weeks relative to control; type: functional; set-up: scale not given: the % may be the effect or the level left
PANC-1 [27] = experiment: Inhibition of CDK9 expression in human PANC-1 cells incubated for 24 hrs by Western blot analysis; type: functional, cell-based; settings: dose 0.1-2.5 µM
PANC-1 [28] = experiment: Induction of apoptosis in human PANC-1 cells assessed as early apoptotic cells at 2.5 uM incubated for 48 hrs by Annexin-V-FITC/PI staining based flow cytometric analysis (reference value: 2.21%); type: functional
PANC-1 [29] = experiment: Antitumor activity against human PANC-1 cells xenografted in BALB/c nude mouse assessed as reduction in tumor growth rate at 20 mg/kg, ip administered for every other day for 4 weeks relative to control; type: functional; set-up: scale not given: the % may be the effect or the level left
PANC-1 [30] = experiment: Induction of cell cycle arrest in human PANC-1 cells assessed as accumulation at G2M phase at 2.5 uM incubated for 24 hrs by propidium iodide staining based flow cytometric analysis (reference value: 2.16%); type: functional
PANC-1 [31] = experiment: Induction of cell cycle arrest in human PANC-1 cells assessed as accumulation at G1 phase at 0.1 uM incubated for 24 hrs by propidium iodide staining based flow cytometric analysis (reference value: 80.36%); type: functional
PANC-1 [32] = experiment: Induction of apoptosis in human PANC-1 cells assessed as late apoptotic cells at 0.5 uM incubated for 48 hrs by Annexin-V-FITC/PI staining based flow cytometric analysis (reference value: 0.22%); type: functional
PANC-1 [33] = experiment: Downregulation of RNAPII phosphorylation level in human PANC-1 cells at 0.5 uM incubated for 24 hrs by Western blot analysis; type: functional, cell-based

Sequence of CDK9/cyclin T1 (O60563 whole entry): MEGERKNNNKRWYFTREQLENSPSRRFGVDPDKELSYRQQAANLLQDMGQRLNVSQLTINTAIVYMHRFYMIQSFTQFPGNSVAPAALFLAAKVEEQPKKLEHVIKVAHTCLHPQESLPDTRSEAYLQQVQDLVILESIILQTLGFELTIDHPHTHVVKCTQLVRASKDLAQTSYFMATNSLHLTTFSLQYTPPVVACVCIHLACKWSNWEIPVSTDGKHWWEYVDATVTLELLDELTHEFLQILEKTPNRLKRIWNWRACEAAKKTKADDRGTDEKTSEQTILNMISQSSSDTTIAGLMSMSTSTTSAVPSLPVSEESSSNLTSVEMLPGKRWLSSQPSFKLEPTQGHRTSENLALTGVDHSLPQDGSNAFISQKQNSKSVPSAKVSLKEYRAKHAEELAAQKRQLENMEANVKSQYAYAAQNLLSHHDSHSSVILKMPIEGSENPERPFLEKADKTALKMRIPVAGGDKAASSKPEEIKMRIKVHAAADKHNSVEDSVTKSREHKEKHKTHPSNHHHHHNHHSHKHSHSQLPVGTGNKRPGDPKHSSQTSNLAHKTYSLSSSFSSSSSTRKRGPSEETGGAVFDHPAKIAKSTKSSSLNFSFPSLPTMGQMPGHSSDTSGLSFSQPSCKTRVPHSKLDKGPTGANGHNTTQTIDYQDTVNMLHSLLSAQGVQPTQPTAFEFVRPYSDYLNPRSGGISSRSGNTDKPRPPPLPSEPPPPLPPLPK
Sequence of CDK9/cyclin T1 (P50750 whole entry): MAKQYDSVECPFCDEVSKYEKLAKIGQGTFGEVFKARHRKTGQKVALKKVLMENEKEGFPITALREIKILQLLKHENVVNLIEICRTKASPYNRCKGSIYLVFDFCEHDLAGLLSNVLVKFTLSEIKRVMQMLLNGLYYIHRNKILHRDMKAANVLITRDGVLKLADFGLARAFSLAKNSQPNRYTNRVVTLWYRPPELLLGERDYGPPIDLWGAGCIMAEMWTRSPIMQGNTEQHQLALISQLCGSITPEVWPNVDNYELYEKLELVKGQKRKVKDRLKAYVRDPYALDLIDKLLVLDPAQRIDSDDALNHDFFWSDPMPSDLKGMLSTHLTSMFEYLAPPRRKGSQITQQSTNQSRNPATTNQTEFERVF

O=C(NCCN1CCOCC1)c1ccc(Nc2nccc(-c3ccc(F)cc3OCc3ccccc3)n2)cc1
IC50 (A-431): 16.6 µM
IC50 (PANC-1 [1]): 16.5 µM
IC50 (NCI-H1975): 10.6 µM
IC50 (L02): 18.9 µM
IC50 (HCT-116): 18 µM

CN1CCN(C(=O)c2ccc(Nc3nccc(-c4ccc(F)cc4OCc4ccccc4)n3)cc2)CC1
IC50 (A-431): 1.05 µM
IC50 (PANC-1 [1]): 2.48 µM
IC50 (NCI-H1975): 1.21 µM
IC50 (L02): 5.28 µM
IC50 (A549): 2.38 µM
IC50 (HCT-116): 5.56 µM

CCN(CC)CCNC(=O)c1ccc(Nc2nccc(-c3ccc(F)cc3OCc3ccccc3)n2)cc1
IC50 (A-431): 1.32 µM
IC50 [2]: 0.796 µM
Selectivity Index (Homo sapiens): 29.8
IC50 (PANC-1 [1]): 1.08 µM
IC50 (NCI-H1975): 1.2 µM
IC50 (L02): 3.69 µM
IC50 (CDK9/cyclin T1): 0.0267 µM
IC50 (HCT-116): 0.13 µM

CC(C)(C)OC(=O)N1CCN(C(=O)c2ccc(Nc3nccc(-c4ccc(F)cc4OCc4ccccc4)n3)cc2)CC1
IC50 (A-431): 0.73 µM
IC50 [2]: 0.924 µM
Selectivity Index (Homo sapiens): 10.4
IC50 (PANC-1 [1]): 0.23 µM
IC50 (NCI-H1975): 1.74 µM
IC50 (L02): 5.69 µM
IC50 (CDK9/cyclin T1): 0.0855 µM
IC50 (A549): 1.61 µM
IC50 (HCT-116): 10.2 µM

CNCCNC(=O)c1ccc(Nc2nccc(-c3ccc(F)cc3OCc3ccccc3)n2)cc1
IC50 (A-431): 2.84 µM
IC50 (PANC-1 [1]): 3.9 µM
IC50 (NCI-H1975): 1.15 µM
IC50 (L02): 18.7 µM
IC50 (A549): 3.8 µM
IC50 (HCT-116): 3.3 µM

O=C(c1ccc(Nc2nccc(-c3ccc(F)cc3OCc3ccccc3)n2)cc1)N1CCNCC1
IC50 (A-431): 3.36 µM
IC50 (PANC-1 [1]): 2.87 µM
IC50 (NCI-H1975): 2.23 µM
IC50 (L02): 5.71 µM
IC50 (HCT-116): 2.39 µM

CC(C)N(CCNC(=O)c1ccc(Nc2nccc(-c3ccc(F)cc3OCc3ccccc3)n2)cc1)C(C)C
IC50 (A-431): 0.59 µM
IC50 [2]: 0.915 µM
Selectivity Index (Homo sapiens): 15.3
IC50 (PANC-1 [1]): 0.56 µM
IC50 (NCI-H1975): 0.86 µM
IC50 (L02): 2.08 µM
IC50 (CDK9/cyclin T1): 0.0596 µM
IC50 (HCT-116): 0.37 µM

CC(C)c1c2cc(-c3ccnc(N[C@H]4CC[C@H](NC5CCOCC5)CC4)n3)ccc2nn1C
IC50 [3]: 0.4 µM

CN(C)CCNC(=O)c1ccc(Nc2nccc(-c3ccc(F)cc3OCc3ccccc3)n2)cc1
viability at 2.5 µM (PANC-1 [4]): 29.8%
Activity [5]: Non-Toxic
Activity (PANC-1 [6]): 22.92%
Activity (PANC-1 [7]): 19.9%
IC50 (A-431): 0.1 µM
Activity (PANC-1 [8]): 19.73%
viability at 0.1 µM (PANC-1 [9]): 52.4%
Activity (PANC-1 [10]): 4.07%
inhibition at 2.5 µM [11]: 100%
Activity (PANC-1 [12]): 23.7%
Activity (PANC-1 [13]): 5.78%
Activity (PANC-1 [14]): 4.35%
Activity (PANC-1 [15]): 53.9%
IC50 [2]: 0.876 µM
Activity (PANC-1 [16]): 20.25%
Activity [17]: Non-Toxic
Selectivity Index (Homo sapiens): 84.3
Activity (PANC-1 [18]): 21.83%
IC50 (PANC-1 [1]): 0.08 µM
Activity (PANC-1 [19]): 8.41%
IC50 (NCI-H1975): 0.43 µM
Activity (PANC-1 [20]): 25.85%
Activity (PANC-1 [21]): 46.01%
viability at 0.5 µM (PANC-1 [22]): 40.1%
Activity (PANC-1 [23]): 57.4%
Activity [24]: Non-Toxic
Activity (PANC-1 [25]): 6.2%
IC50 (L02): 1.43 µM
Activity (PANC-1 [26]): 32.6%
inhibition (PANC-1 [27]): Dose-Dependent Effect
IC50 (CDK9/cyclin T1): 0.0104 µM
Activity (PANC-1 [28]): 8.44%
Activity (PANC-1 [29]): 54.2%
Activity (PANC-1 [30]): 34.26%
Activity (PANC-1 [31]): 55.25%
Activity (PANC-1 [32]): 45.7%
IC50 (A549): 0.66 µM
IC50 (HCT-116): 0.09 µM
Activity (PANC-1 [33]): Active

O=C(NCCN1CCCCC1)c1ccc(Nc2nccc(-c3ccc(F)cc3OCc3ccccc3)n2)cc1
IC50 (A-431): 1.84 µM
IC50 (PANC-1 [1]): 1.6 µM
IC50 (NCI-H1975): 5.83 µM
IC50 (L02): 3.02 µM
IC50 (A549): 8.47 µM
IC50 (HCT-116): 1.27 µM
